These results are taken from US9072698B2, “Method for screening anti-cancer compounds inhibiting function of TM4SF5 and anti-cancer composition containing chalcone compounds” (Seoul National University Industry Foundation, priority 2006, dated 2015).

Converted amounts (≈) assume the structure as drawn.

Holding throughout (type): cell-based
One test concerns A-549 (lung carcinoma). Briefly: In vitro cytotoxicity, sulforhodamine B (SRB) method, A-549. As to conditions: Homo sapiens, A549; A-549, SRB method; read-out: cytotoxicity (ED50) A-549. Summed up:
(§1)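 Cells grown in RPMI 1640 with 10% FCS at 37 °C, 5% CO2 were exposed to compounds at 30, 10, 3, 1 and 0.3 μg/ml final, with DMSO below 0.5%. Cytotoxicity was read by the standard NCI sulforhodamine B protein-staining method.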
A general note: The SRB assay estimates cell density from bound dye.

For test [1], the system named is PC-3 (prostate adenocarcinoma). Briefly: In vitro cytotoxicity, sulforhodamine B (SRB) method, PC-3. Conditions: Homo sapiens; PC-3, SRB method; read-out: cytotoxicity (ED50) PC-3. A digest of the protocol:
as §1

For test [2], the system named is HCT15 (colon adenocarcinoma). As to the kind of experiment: In vitro cytotoxicity, sulforhodamine B (SRB) method, HCT15. As to conditions: Homo sapiens; HCT-15, SRB method; read-out: cytotoxicity (ED50) HCT-15. A digest of the protocol:
as §1

Turning to `O=C(/C=C/c1cccc(O)c1O)c1ccc(OS(=O)(=O)c2cccc(O)c2)cc1` [Compound 95, 4′-(m-hydroxybenzenesulfonate)-2,3-dihydroxychalcone], the IC50 was determined as 9 µg/mL (≈ 21.8 µM) in the test on A-549 (lung carcinoma), 11 µg/mL (≈ 26.7 µM) in test [1] and 9 µg/mL (≈ 21.8 µM) in test [2].
Consider `O=C(/C=C/c1ccc(O)cc1O)c1ccc(OS(=O)(=O)c2cccc(O)c2)cc1` [Compound 96, 4′-(m-hydroxybenzenesulfonate)-2,4-dihydroxychalcone], for which the IC50 in the test on A-549 (lung carcinoma) turned out to be 7 µg/mL (≈ 17 µM); in test [1], 24 µg/mL (≈ 58.2 µM); in test [2], 8 µg/mL (≈ 19.4 µM).
For `O=C(/C=C/c1cc(O)ccc1O)c1ccc(OS(=O)(=O)c2cccc(O)c2)cc1` [Compound 97, 4′-(m-hydroxybenzenesulfonate)-2,5-dihydroxychalcone] the same measures were 6 µg/mL (≈ 14.5 µM), 8 µg/mL (≈ 19.4 µM) and 11 µg/mL (≈ 26.7 µM).
